Assay results as given in paper doi:10.1101/2020.07.01.182642v1 (biorxiv, 2020).

These molecules were tested against T1, CLK3 (R134-T484) (Homo sapiens, UniProt P49761) (assay: not given). Conditions: binder.
T1 sequence (P49761 134-484): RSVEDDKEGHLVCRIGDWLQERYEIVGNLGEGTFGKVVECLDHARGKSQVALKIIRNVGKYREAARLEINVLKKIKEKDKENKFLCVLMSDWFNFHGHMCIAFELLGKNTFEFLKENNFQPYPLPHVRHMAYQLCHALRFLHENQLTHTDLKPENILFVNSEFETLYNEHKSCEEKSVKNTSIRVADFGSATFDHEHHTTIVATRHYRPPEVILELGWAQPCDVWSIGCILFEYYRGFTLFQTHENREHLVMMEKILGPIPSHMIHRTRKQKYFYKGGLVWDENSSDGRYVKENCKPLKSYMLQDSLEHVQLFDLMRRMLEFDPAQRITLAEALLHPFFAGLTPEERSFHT
With `Cn1c2c(c3ccc(Cl)c(Cl)c31)C(C#N)C1(CCNCC1)NC2=O` (racemic) [compound 3, KH-CARB13] the “ΔTm wild type CLK3” value was 1.2 °C. With `Cn1cc(-c2ccc3occ(-c4cccc(-c5ccncc5)c4)c3n2)cn1` [compound 5, MU1210] the “ΔTm wild type CLK3” value was 1.5 °C. In the case of `CC(=O)c1cccc(-c2cnc3ccc(NC(CO)C(C)C)nn23)c1` (stereo not shown) [compound 9], the “ΔTm wild type CLK3” value is reported as 1.8 °C. For `CN1CCN(C(=O)C(C)(C)c2ccc(C(=O)Nc3cn4cc(-c5ccncc5)ccc4n3)cc2)CC1` [compound 10], the “ΔTm wild type CLK3” value was 13.7 °C. For `O=C1NCc2ccc3c(-c4cccc(Cl)c4)c[nH]c3c21` [compound 11], the “ΔTm wild type CLK3” value was 1.7 °C. With `O=c1c2c(ccc3nc(-c4cccnc4)sc32)ncn1C1CC1` [compound 12] the “ΔTm wild type CLK3” value was 3.6 °C. In the case of `COC(=N)c1nc2ccc3ncnc(Nc4ccc(OC)cc4F)c3c2s1` [compound 13, ETH1610], the “ΔTm wild type CLK3” value is reported as 3.4 °C. In the case of `Cn1cc(-c2ccc3occ(-c4cccc(Oc5ccccc5)c4)c3n2)cn1` [compound 14, VN412], the “ΔTm wild type CLK3” value is reported as 4.8 °C. With `CN1CCC2(CC1)NC(=O)c1c(c3ccc(Cl)c(Cl)c3n1C)C2C#N` (stereo not shown) [compound 16, KH-CARB10] the “ΔTm wild type CLK3” value was 1.1 °C. For `Nc1ncnc2c1c(I)cn2C1OC(CO)C(O)C1O` (stereo not shown) [compound 18, iodotubercidin], the “ΔTm wild type CLK3” value was 7.9 °C.

What follows are molecules tested against CLK1 (full-length) (Homo sapiens, UniProt P49759, V324A) (assay: cell-based). Conditions: not given.
Sequence of CLK1 (full-length) (Homo sapiens, UniProt P49759, V324A) (P49759 whole entry V324A): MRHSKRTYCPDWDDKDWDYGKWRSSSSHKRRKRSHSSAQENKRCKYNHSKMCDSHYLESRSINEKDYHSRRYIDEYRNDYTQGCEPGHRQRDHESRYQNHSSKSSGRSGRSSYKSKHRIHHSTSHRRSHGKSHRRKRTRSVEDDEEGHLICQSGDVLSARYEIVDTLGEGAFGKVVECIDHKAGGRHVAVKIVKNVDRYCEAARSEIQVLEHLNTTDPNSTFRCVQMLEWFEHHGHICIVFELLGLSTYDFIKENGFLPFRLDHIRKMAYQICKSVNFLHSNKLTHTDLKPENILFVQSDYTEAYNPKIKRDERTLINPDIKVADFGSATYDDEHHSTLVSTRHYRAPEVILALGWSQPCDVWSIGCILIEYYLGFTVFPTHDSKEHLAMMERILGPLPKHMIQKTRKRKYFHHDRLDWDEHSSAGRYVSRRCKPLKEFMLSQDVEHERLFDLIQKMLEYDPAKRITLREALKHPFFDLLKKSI
`Cn1c2c(c3ccc(Cl)c(Cl)c31)C(C#N)C1(CCNCC1)NC2=O` (racemic) [compound 3, KH-CARB13] gave a Ki of 2810 ± 670 nM. Molecule `CCOc1ccc2c(-c3ccnc(Nc4cc(OC)cc(C(F)(F)F)c4)n3)cnn2n1` [compound 8, GW807982X] has a Ki of 3930 ± 1100 nM. `CC(=O)c1cccc(-c2cnc3ccc(NC(CO)C(C)C)nn23)c1` (stereo not shown) [compound 9, K00518] was tested, and the Ki was 2640 ± 1800 nM. `CN1CCN(C(=O)C(C)(C)c2ccc(C(=O)Nc3cn4cc(-c5ccncc5)ccc4n3)cc2)CC1` [compound 10, T3-CLK] gave a Ki of 2.3 ± 0.1 nM. Molecule `O=C1NCc2ccc3c(-c4cccc(Cl)c4)c[nH]c3c21` [compound 11, KuWal151] has a Ki of 878 ± 46 nM. For `O=c1c2c(ccc3nc(-c4cccnc4)sc32)ncn1C1CC1` [compound 12, FC162], the Ki was 5450 ± 790 nM.

What follows are molecules tested against CLK1 (Homo sapiens, UniProt P49759) (assay: not given). Conditions: binder.
Sequence of CLK1 (P49759 whole entry): as the sequence (P49759 whole entry V324A) above, with A324V counted along it
For `Cn1c2c(c3ccc(Cl)c(Cl)c31)C(C#N)C1(CCNCC1)NC2=O` (racemic) [compound 3, KH-CARB13], the “ΔTm (°C) 3” value was 7.0 degC.

The molecules below were run against CLK3 (Homo sapiens, UniProt P49761) (assay: not given). Conditions: binder.
Sequence of CLK3 (P49761 whole entry): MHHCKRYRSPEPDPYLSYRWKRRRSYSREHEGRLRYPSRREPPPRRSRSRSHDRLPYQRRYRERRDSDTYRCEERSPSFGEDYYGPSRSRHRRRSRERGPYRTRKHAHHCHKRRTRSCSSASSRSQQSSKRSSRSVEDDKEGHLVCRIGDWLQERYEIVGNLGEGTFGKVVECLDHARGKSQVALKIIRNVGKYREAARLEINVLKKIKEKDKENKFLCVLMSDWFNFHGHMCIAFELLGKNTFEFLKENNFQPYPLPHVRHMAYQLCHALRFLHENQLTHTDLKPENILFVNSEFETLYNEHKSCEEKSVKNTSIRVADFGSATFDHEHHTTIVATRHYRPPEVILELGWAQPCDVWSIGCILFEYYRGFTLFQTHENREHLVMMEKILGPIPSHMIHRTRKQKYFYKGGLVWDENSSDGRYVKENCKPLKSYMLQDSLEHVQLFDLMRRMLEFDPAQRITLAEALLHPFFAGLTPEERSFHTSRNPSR
With `Cn1c2c(c3ccc(Cl)c(Cl)c31)C(C#N)C1(CCNCC1)NC2=O` (racemic) [compound 3, KH-CARB13] the “ΔTm (°C) 3” value was 2.2 degC.

Molecular target: T1, CLK3 (R134-T484)
Assay: not given
Conditions: binder
Remark: another data set of the same source
In the case of `CN[C@@H]1C[C@H]2O[C@@](C)([C@@H]1OC)n1c3ccccc3c3c4c(c5c6ccccc6n2c5c31)C(=O)NC4` [compound 6, staurosporine], the “wild type CLK3” value is reported as 4.7 °C. `CCOC(=O)c1c(/C(C#N)=C\N)c2ccc(Cl)c(Cl)c2n1C` [compound 7, KH-CB19] was tested, and the “wild type CLK3” value was 8.6 °C. For `CCOc1ccc2c(-c3ccnc(Nc4cc(OC)cc(C(F)(F)F)c4)n3)cnn2n1` [compound 8, GW807982X], the “wild type CLK3” value was 2.0 °C.

What follows are molecules tested against T2, CLK3 (R134-T484) (Homo sapiens, UniProt P49761, A319V) (assay: not given). Conditions: binder.
T2 sequence (P49761 134-484 A319V): as the sequence (P49761 134-484) above, with A186V counted along it
`Cn1c2c(c3ccc(Cl)c(Cl)c31)C(C#N)C1(CCNCC1)NC2=O` (racemic) [compound 3, KH-CARB13] was tested, and the “ΔTm A319V CLK3” value was 5.8 °C. `Cn1cc(-c2ccc3occ(-c4cccc(-c5ccncc5)c4)c3n2)cn1` [compound 5, MU1210] was tested, and the “ΔTm A319V CLK3” value was 8.27 °C. With `CC(=O)c1cccc(-c2cnc3ccc(NC(CO)C(C)C)nn23)c1` (stereo not shown) [compound 9] the “ΔTm A319V CLK3” value was 8.6 °C. In the case of `CN1CCN(C(=O)C(C)(C)c2ccc(C(=O)Nc3cn4cc(-c5ccncc5)ccc4n3)cc2)CC1` [compound 10], the “ΔTm A319V CLK3” value is reported as 17.3 °C. With `O=C1NCc2ccc3c(-c4cccc(Cl)c4)c[nH]c3c21` [compound 11] the “ΔTm A319V CLK3” value was 4.7 °C. `O=c1c2c(ccc3nc(-c4cccnc4)sc32)ncn1C1CC1` [compound 12] was tested, and the “ΔTm A319V CLK3” value was 5.5 °C. For `COC(=N)c1nc2ccc3ncnc(Nc4ccc(OC)cc4F)c3c2s1` [compound 13, ETH1610], the “ΔTm A319V CLK3” value was 9.2 °C. In the case of `Cn1cc(-c2ccc3occ(-c4cccc(Oc5ccccc5)c4)c3n2)cn1` [compound 14, VN412], the “ΔTm A319V CLK3” value is reported as 10.1 °C. With `CN1CCC2(CC1)NC(=O)c1c(c3ccc(Cl)c(Cl)c3n1C)C2C#N` (stereo not shown) [compound 16, KH-CARB10] the “ΔTm A319V CLK3” value was 5.0 °C. In the case of `Nc1ncnc2c1c(I)cn2C1OC(CO)C(O)C1O` (stereo not shown) [compound 18, iodotubercidin], the “ΔTm A319V CLK3” value is reported as 14.1 °C.

What follows are molecules tested against T2, CLK3 (R134-T484) (assay: Omnia kinase assay). Conditions: not given.
Type: biochemical
`Cn1c2c(c3ccc(Cl)c(Cl)c31)C(C#N)C1(CCNCC1)NC2=O` (racemic) [compound 3, KH-CARB13] was tested, and the Ki was 850 ± 300 nM.

These molecules were tested against CLK1 (full-length) (Homo sapiens, UniProt P49759) (assay: cell-based). Conditions: not given.
Sequence of CLK1 (full-length) (Homo sapiens, UniProt P49759) (P49759 whole entry): as the sequence (P49759 whole entry V324A) above, with A324V counted along it
Molecule `CCOc1ccc2c(-c3ccnc(Nc4cc(OC)cc(C(F)(F)F)c4)n3)cnn2n1` [compound 8, GW807982X] has a Ki of 36 ± 20 nM. Molecule `CC(=O)c1cccc(-c2cnc3ccc(NC(CO)C(C)C)nn23)c1` (stereo not shown) [compound 9, K00518] has a Ki of 943 ± 640 nM. `CN1CCN(C(=O)C(C)(C)c2ccc(C(=O)Nc3cn4cc(-c5ccncc5)ccc4n3)cc2)CC1` [compound 10, T3-CLK] gave a Ki of 1 ± 0.1 nM. `O=C1NCc2ccc3c(-c4cccc(Cl)c4)c[nH]c3c21` [compound 11, KuWal151] gave a Ki of 228 ± 80 nM. `O=c1c2c(ccc3nc(-c4cccnc4)sc32)ncn1C1CC1` [compound 12, FC162] showed a Ki of 1860 ± 1200 nM.

Each molecule was assayed against CLK1 (H148-I484) (Homo sapiens, UniProt P49759, V324A) (assay: not given). Conditions: binder.
Sequence of CLK1 (H148-I484) (Homo sapiens, UniProt P49759, V324A) (P49759 148-484 V324A): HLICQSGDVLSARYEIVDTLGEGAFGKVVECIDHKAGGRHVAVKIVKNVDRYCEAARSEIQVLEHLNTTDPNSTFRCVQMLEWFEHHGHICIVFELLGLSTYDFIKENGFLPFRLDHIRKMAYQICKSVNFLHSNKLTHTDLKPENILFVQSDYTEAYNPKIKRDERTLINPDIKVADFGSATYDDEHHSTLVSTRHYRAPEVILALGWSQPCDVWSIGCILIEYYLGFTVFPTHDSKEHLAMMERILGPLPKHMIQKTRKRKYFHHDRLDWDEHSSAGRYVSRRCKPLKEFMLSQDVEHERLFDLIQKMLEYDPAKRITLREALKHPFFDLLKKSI
For `Cn1cc(-c2ccc3occ(-c4cccc(-c5ccncc5)c4)c3n2)cn1` [compound 5, MU1210], the “ΔTm V324A CLK1” value was 5.94 °C. In the case of `CC(=O)c1cccc(-c2cnc3ccc(NC(CO)C(C)C)nn23)c1` (stereo not shown) [compound 9], the “ΔTm V324A CLK1” value is reported as 3.9 °C. In the case of `CN1CCN(C(=O)C(C)(C)c2ccc(C(=O)Nc3cn4cc(-c5ccncc5)ccc4n3)cc2)CC1` [compound 10], the “ΔTm V324A CLK1” value is reported as 13.7 °C. In the case of `O=C1NCc2ccc3c(-c4cccc(Cl)c4)c[nH]c3c21` [compound 11], the “ΔTm V324A CLK1” value is reported as 5.1 °C. For `O=c1c2c(ccc3nc(-c4cccnc4)sc32)ncn1C1CC1` [compound 12], the “ΔTm V324A CLK1” value was 3.0 °C. `COC(=N)c1nc2ccc3ncnc(Nc4ccc(OC)cc4F)c3c2s1` [compound 13, ETH1610] was tested, and the “ΔTm V324A CLK1” value was 3.8 °C. In the case of `Cn1cc(-c2ccc3occ(-c4cccc(Oc5ccccc5)c4)c3n2)cn1` [compound 14, VN412], the “ΔTm V324A CLK1” value is reported as 7.8 °C. `CN1CCC2(CC1)NC(=O)c1c(c3ccc(Cl)c(Cl)c3n1C)C2C#N` (stereo not shown) [compound 16, KH-CARB10] was tested, and the “ΔTm V324A CLK1” value was 1.8 °C. In the case of `Nc1ncnc2c1c(I)cn2C1OC(CO)C(O)C1O` (stereo not shown) [compound 18, iodotubercidin], the “ΔTm V324A CLK1” value is reported as 9.7 °C.

These molecules were tested against T3, CLK1 (H148-I484) (Homo sapiens, UniProt P49759) (assay: not given). Conditions: binder.
T3 sequence (P49759 148-484): as the sequence (P49759 148-484 V324A) above, with A177V counted along it
With `CCOC(=O)c1c(/C(C#N)=C\N)c2ccc(Cl)c(Cl)c2n1C` [compound 7, KH-CB19] the “wild type CLK1” value was 15.0 °C. For `CCOc1ccc2c(-c3ccnc(Nc4cc(OC)cc(C(F)(F)F)c4)n3)cnn2n1` [compound 8, GW807982X], the “wild type CLK1” value was 9 °C.

Molecular target: T3, CLK1 (H148-I484)
Assay: not given
Conditions: binder
Remark: another data set of the same source
`Cn1c2c(c3ccc(Cl)c(Cl)c31)C(C#N)C1(CCNCC1)NC2=O` (racemic) [compound 3, KH-CARB13] was tested, and the “ΔTm wild type CLK1” value was 7.4 °C. In the case of `Cn1cc(-c2ccc3occ(-c4cccc(-c5ccncc5)c4)c3n2)cn1` [compound 5, MU1210], the “ΔTm wild type CLK1” value is reported as 9.3 °C. For `CC(=O)c1cccc(-c2cnc3ccc(NC(CO)C(C)C)nn23)c1` (stereo not shown) [compound 9], the “ΔTm wild type CLK1” value was 6.8 °C. In the case of `CN1CCN(C(=O)C(C)(C)c2ccc(C(=O)Nc3cn4cc(-c5ccncc5)ccc4n3)cc2)CC1` [compound 10], the “ΔTm wild type CLK1” value is reported as 18.7 °C. In the case of `O=C1NCc2ccc3c(-c4cccc(Cl)c4)c[nH]c3c21` [compound 11], the “ΔTm wild type CLK1” value is reported as 9.4 °C. In the case of `O=c1c2c(ccc3nc(-c4cccnc4)sc32)ncn1C1CC1` [compound 12], the “ΔTm wild type CLK1” value is reported as 9.5 °C. For `COC(=N)c1nc2ccc3ncnc(Nc4ccc(OC)cc4F)c3c2s1` [compound 13, ETH1610], the “ΔTm wild type CLK1” value was 10.3 °C. In the case of `Cn1cc(-c2ccc3occ(-c4cccc(Oc5ccccc5)c4)c3n2)cn1` [compound 14, VN412], the “ΔTm wild type CLK1” value is reported as 12.3 °C. For `CN1CCC2(CC1)NC(=O)c1c(c3ccc(Cl)c(Cl)c3n1C)C2C#N` (stereo not shown) [compound 16, KH-CARB10], the “ΔTm wild type CLK1” value was 6.1 °C. `Nc1ncnc2c1c(I)cn2C1OC(CO)C(O)C1O` (stereo not shown) [compound 18, iodotubercidin] was tested, and the “ΔTm wild type CLK1” value was 13.1 °C.
